Target: T1, BRD4 (Homo sapiens, UniProt O60885)
T1 construct: HEK293 containing a HiBit insertion for BRD4; endogenous in cells; host or cells: HEK293 with a HiBiT insertion for BRD4
Test: Assay 1 - Degradation of HiBit-BRD4 in HEK293
Assay type: cell-based
Settings: HiBit-BRD4 in HEK293, 6 h treatment
Description: 1.1 Assay 1-Degradation of HiBit-BRD4 in HEK293
HEK293 containing a HiBit insertion for BRD4 were plated in 384-well tissue culture plates at a density of 8×10^4 per well in a volume of 36 μL and incubated overnight at 37° C. and 5% CO2. Wells were treated with test compounds for 6 h prior to addition of the NanoLuc substrate and reading on a […]. Degradation data was plotted and analysed using […] (Graphpad).

Row | Structure (SMILES) | DC50 | Dmax
1 | CC(=O)N1c2ccc(-c3ccc(C(=O)NCCOCCOCCOCCOCCOCCNC(=O)[C@@H]4CN(C(=O)/C(C#N)=C/C(C)(C)C)C[C@H]4c4cccc(C)c4)cc3)cc2[C@H](Nc2ccc(Cl)cc2)C[C@@H]1C [Example 15ak, N-(1-(4-((2S,4R)-1-acetyl-4-((4-chlorophenyl)amino)-2-methyl-1,2,3,4-tetrahydroquinolin-6-yl)phenyl)-1-oxo-5,8,11,14,17-pentaoxa-2-azanonadecan-19-yl)-1-((E)-2-cyano-4,4-dimethylpent-2-enoyl)-4-(m-tolyl)pyrrolidine-3-carboxamide] | 25 to 200 nM | ≥ 70%
2 | CC(=O)N1c2ccc(-c3ccc(C(=O)NCCOCCOCCOCCOCCOCCNC(=O)[C@@H]4CN(C(=O)/C(C#N)=C/C(C)(C)C)C[C@H]4C)cc3)cc2[C@H](Nc2ccc(Cl)cc2)C[C@@H]1C [Example 15b] | 25 to 200 nM | ≥ 70%
3 | CC(=O)N1c2ccc(-c3ccc(C(=O)NCCOCCOCCOCCOCCOCCNC(=O)CN4CCC(C5CCCN5C(=O)/C(C#N)=C/c5cscn5)CC4)cc3)cc2[C@H](Nc2ccc(Cl)cc2)C[C@@H]1C (some centres unmarked) [Example 14a] | 25 to 200 nM | ≥ 70%
4 | CC(=O)N1c2ccc(-c3ccc(C(=O)NCCOCCOCCOCCOCCOCCNC(=O)C4CC(C5CC5)CN(C(=O)/C(C#N)=C/C(C)(C)C)C4)cc3)cc2[C@H](Nc2ccc(Cl)cc2)C[C@@H]1C (some centres unmarked) [Example 13v] | 25 to 200 nM | ≥ 70%
5 | CC(=O)N1c2ccc(-c3ccc(C(=O)NCCOCCOCCOCCOCCOCCNC(=O)[C@@H]4CN(C(=O)/C(C#N)=C/c5ccc(F)cc5)C[C@H]4C4CCCCC4)cc3)cc2[C@H](Nc2ccc(Cl)cc2)C[C@@H]1C [Example 15s] | 25 to 200 nM | 50 to 70%
6 | COc1ccc(C2CC(C(=O)NCCOCCOCCOCCOCCOCCNC(=O)c3ccc(-c4ccc5c(c4)[C@H](Nc4ccc(Cl)cc4)C[C@H](C)N5C(C)=O)cc3)CN(C(=O)/C(C#N)=C/C(C)(C)CN3CCOCC3)C2)cc1 (some centres unmarked) [Example 13ai] | > 200 nM | 30 to 50%
7 | CC(=O)N1c2ccc(-c3ccc(C(=O)NCCOCCOCCOCCOCCOCCNC(=O)C4CCCN(C(=O)/C(C#N)=C/C(C)(C)C)C4)cc3)cc2[C@H](Nc2ccc(Cl)cc2)C[C@@H]1C (some centres unmarked) [Example 13b] | 25 to 200 nM | ≥ 70%
8 | CC(=O)N1c2ccc(-c3ccc(C(=O)NCCOCCOCCOCCOCCOCCNC(=O)[C@@H]4CN(C(=O)/C(C#N)=C/c5ccn(C)n5)C[C@H]4C4CCCCC4)cc3)cc2[C@H](Nc2ccc(Cl)cc2)C[C@@H]1C [Example 15r] | > 200 nM | 50 to 70%
9 | CC(=O)N1c2ccc(-c3ccc(C(=O)NCCOCCOCCOCCOCCOCCNC(=O)C4CC(c5cccc(C)c5)CN(C(=O)/C(C#N)=C/C(C)(C)CN5CCOCC5)C4)cc3)cc2[C@H](Nc2ccc(Cl)cc2)C[C@@H]1C (some centres unmarked) [Example 13ax] | < 25 nM | ≥ 70%
10 | CC(=O)N1c2ccc(-c3ccc(C(=O)NCCOCCOCCOCCOCCOCCNC(=O)C4CC(c5cccc(C)c5)CN(C(=O)/C(C#N)=C/C(C)(C)C)C4)cc3)cc2[C@H](Nc2ccc(Cl)cc2)C[C@@H]1C (some centres unmarked) [Example 13au] | 25 to 200 nM | ≥ 70%
11 | CC(=O)N1c2ccc(-c3ccc(C(=O)NCCOCCOCCOCCOCCOCCNC(=O)C4CC(C5CCCCC5)CN(C(=O)/C(C#N)=C/c5ccc(F)cc5)C4)cc3)cc2[C@H](Nc2ccc(Cl)cc2)C[C@@H]1C (some centres unmarked) [Example 13s] | 25 to 200 nM | ≥ 70%
12 | CC(=O)N1c2ccc(-c3ccc(C(=O)NCCOCCOCCOCCOCCOCCNC(=O)[C@@H]4CN(C(=O)/C(C#N)=C/c5ccc(F)cc5)C[C@H]4C(C)C)cc3)cc2[C@H](Nc2ccc(Cl)cc2)C[C@@H]1C [Example 15i] | > 200 nM | 50 to 70%
13 | CC(=O)N1c2ccc(-c3ccc(C(=O)NCCOCCOCCOCCOCCOCCNC(=O)C4CC(C)CN(C(=O)/C(C#N)=C/c5ccc(F)cc5)C4)cc3)cc2[C@H](Nc2ccc(Cl)cc2)C[C@@H]1C (some centres unmarked) [Example 13i] | > 200 nM | 30 to 50%
14 | CC(=O)N1c2ccc(-c3ccc(C(=O)NCCOCCOCCOCCOCCOCCNC(=O)C4CC(c5cccc(C)c5)CN(C(=O)/C(C#N)=C/c5ccn(C)n5)C4)cc3)cc2[C@H](Nc2ccc(Cl)cc2)C[C@@H]1C (some centres unmarked) [Example 13av] | > 200 nM | 50 to 70%
15 | CC(=O)N1c2ccc(-c3ccc(C(=O)NCCOCCOCCOCCOCCOCCNC(=O)C4CC(C(C)C)CN(C(=O)/C(C#N)=C/c5ccn(C)n5)C4)cc3)cc2[C@H](Nc2ccc(Cl)cc2)C[C@@H]1C (some centres unmarked) [Example 13m] | 25 to 200 nM | 50 to 70%
16 | CC(=O)N1c2ccc(-c3ccc(C(=O)NCCOCCOCCOCCOCCOCCNC(=O)C4CC(C5CCCCC5)CN(C(=O)/C(C#N)=C/C(C)(C)C)C4)cc3)cc2[C@H](Nc2ccc(Cl)cc2)C[C@@H]1C (some centres unmarked) [Example 13q] | 25 to 200 nM | 50 to 70%
17 | CC(=O)N1c2ccc(-c3ccc(C(=O)NCCOCCOCCOCCOCCOCCNC(=O)[C@@H]4CN(C(=O)/C(C#N)=C/C(C)(C)CN5CCOCC5)C[C@H]4c4cccc(C)c4)cc3)cc2[C@H](Nc2ccc(Cl)cc2)C[C@@H]1C [Example 15an] | 25 to 200 nM | 30 to 50%
18 | CC(=O)N1c2ccc(-c3ccc(C(=O)NCCOCCOCCOCCOCCOCCNC(=O)C4CC(c5ccc(C(F)(F)F)cc5)CN(C(=O)/C(C#N)=C/C(C)(C)C)C4)cc3)cc2[C@H](Nc2ccc(Cl)cc2)C[C@@H]1C (some centres unmarked) [Example 13ak] | 25 to 200 nM | ≥ 70%
19 | CC(=O)N1c2ccc(-c3ccc(C(=O)NCCOCCOCCOCCOCCOCCNC(=O)C4CC(c5ccccc5)CN(C(=O)/C(C#N)=C/c5ccc(F)cc5)C4)cc3)cc2[C@H](Nc2ccc(Cl)cc2)C[C@@H]1C (some centres unmarked) [Example 13ac] | 25 to 200 nM | ≥ 70%
20 | CC(=O)N1c2ccc(-c3ccc(C(=O)NCCOCCOCCOCCOCCOCCNC(=O)C4CC(C5CCCCC5)CN(C(=O)/C(C#N)=C/c5ccn(C)n5)C4)cc3)cc2[C@H](Nc2ccc(Cl)cc2)C[C@@H]1C (some centres unmarked) [Example 13r] | 25 to 200 nM | ≥ 70%

Other lines, results leading:

Row | DC50 | Dmax | Structure (SMILES)
21 | < 25 nM | ≥ 70% | CC(=O)N1c2ccc(-c3ccc(C(=O)NCCOCCOCCOCCOCCOCCNC(=O)C4CC(c5ccccc5)CN(C(=O)/C(C#N)=C/c5nccs5)C4)cc3)cc2[C@H](Nc2ccc(Cl)cc2)C[C@@H]1C (some centres unmarked) [Example 13z]
22 | < 25 nM | ≥ 70% | CC(=O)N1c2ccc(-c3ccc(C(=O)NCCOCCOCCOCCOCCOCCNC(=O)C4CC(C(C)C)CN(C(=O)/C(C#N)=C/c5nccs5)C4)cc3)cc2[C@H](Nc2ccc(Cl)cc2)C[C@@H]1C (some centres unmarked) [Example 13k]
23 | < 25 nM | ≥ 70% | CC(=O)N1c2ccc(-c3ccc(C(=O)NCCOCCOCCOCCOCCOCCNC(=O)C4CC(C5CC5)CN(C(=O)/C(C#N)=C/c5nccs5)C4)cc3)cc2[C@H](Nc2ccc(Cl)cc2)C[C@@H]1C (some centres unmarked) [Example 13u]
24 | > 200 nM | 30 to 50% | CC(=O)N1c2ccc(-c3ccc(C(=O)NCCOCCOCCOCCOCCOCCNC(=O)[C@@H]4CN(C(=O)/C(C#N)=C/c5nccs5)C[C@H]4C(C)C)cc3)cc2[C@H](Nc2ccc(Cl)cc2)C[C@@H]1C [Example 15f]
25 | 25 to 200 nM | 50 to 70% | COc1ccc(C2CC(C(=O)NCCOCCOCCOCCOCCOCCNC(=O)c3ccc(-c4ccc5c(c4)[C@H](Nc4ccc(Cl)cc4)C[C@H](C)N5C(C)=O)cc3)CN(C(=O)/C(C#N)=C/C(C)(C)C)C2)cc1 (some centres unmarked) [Example 13af]
26 | 25 to 200 nM | ≥ 70% | CC(=O)N1c2ccc(-c3ccc(C(=O)NCCOCCOCCOCCOCCOCCNC(=O)[C@@H]4CN(C(=O)/C(C#N)=C/c5nccs5)C[C@H]4c4ccc(F)cc4)cc3)cc2[C@H](Nc2ccc(Cl)cc2)C[C@@H]1C [Example 15ae]
27 | 25 to 200 nM | 50 to 70% | CC(=O)N1c2ccc(-c3ccc(C(=O)NCCOCCOCCOCCOCCOCCNC(=O)[C@@H]4CN(C(=O)/C(C#N)=C/c5nccs5)C[C@H]4c4cccc(C)c4)cc3)cc2[C@H](Nc2ccc(Cl)cc2)C[C@@H]1C [Example 15aj]
28 | 25 to 200 nM | ≥ 70% | CC(=O)N1c2ccc(-c3ccc(C(=O)NCCOCCOCCOCCOCCOCCNC(=O)[C@@H]4CN(C(=O)/C(C#N)=C/c5nccs5)C[C@H]4C4CCCCC4)cc3)cc2[C@H](Nc2ccc(Cl)cc2)C[C@@H]1C [Example 15p]
29 | > 200 nM | 30 to 50% | CC(=O)N1c2ccc(-c3ccc(C(=O)NCCOCCOCCOCCOCCOCCNC(=O)[C@@H]4CN(C(=O)/C(C#N)=C/c5ccc(F)cc5)C[C@H]4c4ccccc4)cc3)cc2[C@H](Nc2ccc(Cl)cc2)C[C@@H]1C [Example 15x]
30 | 25 to 200 nM | ≥ 70% | COc1ccc(C2CC(C(=O)NCCOCCOCCOCCOCCOCCNC(=O)c3ccc(-c4ccc5c(c4)[C@H](Nc4ccc(Cl)cc4)C[C@H](C)N5C(C)=O)cc3)CN(C(=O)/C(C#N)=C/c3ccc(F)cc3)C2)cc1 (some centres unmarked) [Example 13ah]
31 | > 200 nM | 30 to 50% | CC(=O)N1c2ccc(-c3ccc(C(=O)NCCOCCOCCOCCOCCOCCNC(=O)[C@@H]4CN(C(=O)/C(C#N)=C/c5ccc(F)cc5)C[C@H]4c4ccc(F)cc4)cc3)cc2[C@H](Nc2ccc(Cl)cc2)C[C@@H]1C [Example 15ah]
32 | 25 to 200 nM | ≥ 70% | COc1ccc(C2CC(C(=O)NCCOCCOCCOCCOCCOCCNC(=O)c3ccc(-c4ccc5c(c4)[C@H](Nc4ccc(Cl)cc4)C[C@H](C)N5C(C)=O)cc3)CN(C(=O)/C(C#N)=C/c3nccs3)C2)cc1 (some centres unmarked) [Example 13ae]
33 | 25 to 200 nM | ≥ 70% | COc1ccc([C@@H]2CN(C(=O)/C(C#N)=C/C(C)(C)C)C[C@H]2C(=O)NCCOCCOCCOCCOCCOCCNC(=O)c2ccc(-c3ccc4c(c3)[C@H](Nc3ccc(Cl)cc3)C[C@H](C)N4C(C)=O)cc2)cc1 [Example 15aa]
34 | 25 to 200 nM | 30 to 50% | COc1ccc([C@@H]2CN(C(=O)/C(C#N)=C/c3nccs3)C[C@H]2C(=O)NCCOCCOCCOCCOCCOCCNC(=O)c2ccc(-c3ccc4c(c3)[C@H](Nc3ccc(Cl)cc3)C[C@H](C)N4C(C)=O)cc2)cc1 [Example 15z]

— patent US20260232812A1, “BIFUNCTIONAL MOLECULES FOR TARGETED PROTEIN DEGRADATION” (Amphista Therapeutics Limited, priority 2022, published 2026)
